Data on 51 compounds can be found in patent US4438120A, “Pyridoindolobenzodiazepine tranquilizers” (E. I. Du Pont de Nemours & Company, priority 1982, dated 1984).

Bounds are passed on as bounds.

The assay deals with Conditioned Avoidance Response (CAR). Description: Conditioned Avoidance Response (CAR) test in mice, oral. Type of assay: in vivo, mouse (female white mice). The following applies: female white mice, moving average method.
Experimental: The paradigm used for predicting tranquilizer activity was a Conditioned Avoidance Response (CAR) test in mice. Female white mice, 19-23 g, were used. The apparatus modified from Bovet, D. et al., Science, 163, 139-149 (1969), was a one-way shuttlebox with 0.4 mA scrambled electric footshock as unconditioned stimulus (US) and a 6 watt white light plus a relay buzzer as conditioned stimuli (CS). Mice were conditioned by three sets of 1-5 trials on day 1, then were fasted for 17-21 hours. The conditioned mice were tested for retention of the conditioned response on day 2, and then were dosed orally with test drug at doses such as 0, 1, 3, 9, 27 and 81 mg/kg. ED50 values (doses at which 50% of the animals would be expected to show response failure) were calculated by the moving average method [Thompson, W. R., Bact. Rev., 11, 115 (1947)].
“5-Chloro-1,2,3,4-tetrahydro-3-(3-oxobutyl)pyrido[4',3':2,3]indolo[1,7-ab][1,4]benzodiazepin-8(9H)-one [Example 52]”: the “Mouse CAR ED50 (avoidance ED50, dose at which 50% of the animals would be expected to show response failure)” value is on record as 39 mg/kg.
For the compound `CCN1CC[C@@H]2[C@@H](C1)c1cc(Cl)cc3c1N2c1ccccc1CN3.Cl.Cl` (relative stereo) [Example 96, trans-6-Chloro-3-ethyl-1,2,3,4,4a,8,9,14a-octahydropyrido[4',3':2,3]indolo[1,7-ab][1,4]benzodiazepine, Dihydrochloride], the “Mouse CAR ED50 (avoidance ED50, dose at which 50% of the animals would be expected to show response failure)” value is given as 0.3 mg/kg.
Turning to `CN1CC[C@@H]2[C@@H](C1)c1cccc3c1N2c1ccccc1CN3` (relative stereo) [Example 97], the “Mouse CAR ED50 (avoidance ED50, dose at which 50% of the animals would be expected to show response failure)” value is listed as 9.0 mg/kg.
Next, `CN1CC[C@@H]2[C@@H](C1)c1cccc3c1N2c1ccc(Cl)cc1CN3` (relative stereo) [Example 99]: 1.4 mg/kg; `CN1CC[C@@H]2[C@@H](C1)c1cc(Cl)cc3c1N2c1ccc(Cl)cc1CN3` (relative stereo) [Example 100]: 2.1 mg/kg.
`Cc1ccc2c(c1)CNc1cc(Cl)cc3c1N2[C@@H]1CCN(C)C[C@@H]31` (relative stereo) [Example 101]: the “Mouse CAR ED50 (avoidance ED50, dose at which 50% of the animals would be expected to show response failure)” value amounted to 0.69 mg/kg.
Regarding `CCN1CC[C@@H]2[C@@H](C1)c1c(Cl)ccc3c1N2c1ccccc1CN3` (relative stereo) [Example 102], the “Mouse CAR ED50 (avoidance ED50, dose at which 50% of the animals would be expected to show response failure)” value is given as 5.8 mg/kg.
For `CCN1CC[C@@H]2[C@@H](C1)c1cc(C(F)(F)F)cc3c1N2c1ccccc1CN3` (relative stereo) [Example 103] the value was 1.2 mg/kg.
As to `CCN1CC[C@@H]2[C@@H](C1)c1cccc3c1N2c1ccccc1CN3C` (relative stereo) [Example 104], the “Mouse CAR ED50 (avoidance ED50, dose at which 50% of the animals would be expected to show response failure)” value is reported as 41 mg/kg.
As to `CCN1CC[C@@H]2[C@@H](C1)c1cccc3c1N2c1ccc(Cl)cc1CN3` (relative stereo) [Example 105], the “Mouse CAR ED50 (avoidance ED50, dose at which 50% of the animals would be expected to show response failure)” value is on record as 24 mg/kg.
For `CCN1CC[C@@H]2[C@@H](C1)c1cc(Cl)cc3c1N2c1ccccc1CN3C` (relative stereo) [Example 106] the value was 5.8 mg/kg.
With `CCN1CC[C@@H]2[C@@H](C1)c1cc(C(F)(F)F)cc3c1N2c1ccccc1CN3C` (relative stereo) [Example 107], the “Mouse CAR ED50 (avoidance ED50, dose at which 50% of the animals would be expected to show response failure)” value is given as 10.1 mg/kg.
Consider `CCCCCCN1CC[C@@H]2[C@@H](C1)c1cc(Cl)cc3c1N2c1ccc(C)cc1CN3` (relative stereo) [Example 108], for which the “Mouse CAR ED50 (avoidance ED50, dose at which 50% of the animals would be expected to show response failure)” value is 2.5 mg/kg.
For `Clc1ccc2c(c1)CNc1cccc3c1N2[C@@H]1CCN(CC2CC2)C[C@@H]31` (relative stereo) [Example 109] the value was 2.1 mg/kg.
Take `FC(F)(F)c1cc2c3c(c1)[C@@H]1CN(CC4CC4)CC[C@H]1N3c1ccccc1CN2` (relative stereo) [Example 110]: the “Mouse CAR ED50 (avoidance ED50, dose at which 50% of the animals would be expected to show response failure)” value was 15.6 mg/kg.
As to `c1ccc2c(c1)CNc1cccc3c1N2[C@@H]1CCN(CC2CCCCC2)C[C@@H]31` (relative stereo) [Example 111], the “Mouse CAR ED50 (avoidance ED50, dose at which 50% of the animals would be expected to show response failure)” value stood at 3.3 mg/kg.
For `CN1Cc2ccccc2N2c3c(cccc31)[C@@H]1CN(Cc3ccccc3)CC[C@H]12` (relative stereo) [Example 112], the “Mouse CAR ED50 (avoidance ED50, dose at which 50% of the animals would be expected to show response failure)” value was 6.8 mg/kg.
`Cc1ccc2c(c1)CNc1cc(Cl)cc3c1N2[C@@H]1CCN(CCc2ccccc2)C[C@@H]31` (relative stereo) [Example 113]: the “Mouse CAR ED50 (avoidance ED50, dose at which 50% of the animals would be expected to show response failure)” value is 3.5 mg/kg.
With `Clc1ccc2c(c1)CNc1cccc3c1N2[C@@H]1CCN(CCc2ccccc2)C[C@@H]31` (relative stereo) [Example 114], the “Mouse CAR ED50 (avoidance ED50, dose at which 50% of the animals would be expected to show response failure)” value stood at 5.2 mg/kg.
For `O=C1Nc2cccc3c4c(n(c23)-c2ccccc21)CCNC4` [Example 2, 1,2,3,4-tetrahydropyrido[4',3':2,3]indolo[1,7-ab][1,4]benzodiazepin-9(8H)-one], the “Mouse CAR ED50 (avoidance ED50, dose at which 50% of the animals would be expected to show response failure)” value is 39 mg/kg.
With `O=C1Nc2ccc(Cl)c3c4c(n(c23)-c2ccccc21)CCNC4` [Example 3], the “Mouse CAR ED50 (avoidance ED50, dose at which 50% of the animals would be expected to show response failure)” value came to 45 mg/kg.
For `O=C1Nc2cc(Cl)cc3c4c(n(c23)-c2ccccc21)CCNC4` [Example 4], the “Mouse CAR ED50 (avoidance ED50, dose at which 50% of the animals would be expected to show response failure)” value amounted to 29 mg/kg.
For `O=C1Nc2cc(C(F)(F)F)cc3c4c(n(c23)-c2ccccc21)CCNC4` [Example 5] the value was 81 mg/kg; for `Cc1ccc2c(c1)C(=O)Nc1cccc3c4c(n-2c13)CCNC4` [Example 6], 24 mg/kg; for `O=C1Nc2cccc3c4c(n(c23)-c2ccc(Cl)cc21)CCNC4` [Example 7], 25 mg/kg.
In the case of `O=C1Nc2cccc3c4c(n(c23)-c2cc(Cl)ccc21)CCNC4` [Example 8], the “Mouse CAR ED50 (avoidance ED50, dose at which 50% of the animals would be expected to show response failure)” value is given as greater than 54 mg/kg.
Consider `Cc1ccc2c(c1)C(=O)Nc1ccc(Cl)c3c4c(n-2c13)CCNC4` [Example 9], for which the “Mouse CAR ED50 (avoidance ED50, dose at which 50% of the animals would be expected to show response failure)” value is greater than 81 mg/kg.
For `CN1CCc2c(c3c(Cl)ccc4c3n2-c2ccccc2C(=O)N4)C1` [Example 10], the “Mouse CAR ED50 (avoidance ED50, dose at which 50% of the animals would be expected to show response failure)” value stood at 19.7 mg/kg.
Take `CN1CCc2c(c3cc(Cl)cc4c3n2-c2ccccc2C(=O)N4)C1` [Example 11]: the “Mouse CAR ED50 (avoidance ED50, dose at which 50% of the animals would be expected to show response failure)” value came out at 67 mg/kg.
With `CN1CCc2c(c3cccc4c3n2-c2ccc(Cl)cc2C(=O)N4)C1` [Example 12], the “Mouse CAR ED50 (avoidance ED50, dose at which 50% of the animals would be expected to show response failure)” value was 12 mg/kg.
Next, `Cc1ccc2c(c1)C(=O)Nc1cc(Cl)cc3c4c(n-2c13)CCN(C)C4` [Example 13]: 10.5 mg/kg; `CN1CCc2c(c3cc(Cl)cc4c3n2-c2ccc(Cl)cc2C(=O)N4)C1` [Example 14]: 31 mg/kg.
As to `Cc1ccc2c(c1)C(=O)Nc1cc(Cl)cc3c4c(n-2c13)CCN(CCc1ccccc1)C4` [Example 16], the “Mouse CAR ED50 (avoidance ED50, dose at which 50% of the animals would be expected to show response failure)” value is 47 mg/kg.
For `CN1CCc2c(c3cc(C(F)(F)F)cc4c3n2-c2ccc(Cl)cc2C(=O)N4)C1` [Example 17], the “Mouse CAR ED50 (avoidance ED50, dose at which 50% of the animals would be expected to show response failure)” value is 37 mg/kg.
For `CN1CCc2c(c3cc(C(F)(F)F)cc4c3n2-c2ccccc2C(=O)N4)C1` [Example 18] the value was greater than 81 mg/kg; for `Cc1ccc2c(c1)C(=O)Nc1ccc(Cl)c3c4c(n-2c13)CCN(C)C4` [Example 19], greater than 81 mg/kg.
For `Cc1ccc2c(c1)C(=O)Nc1cc(Cl)cc3c4c(n-2c13)CCNC4` [Example 20], the “Mouse CAR ED50 (avoidance ED50, dose at which 50% of the animals would be expected to show response failure)” value was greater than 81 mg/kg.
Turning to `O=C1Nc2cc(C(F)(F)F)cc3c4c(n(c23)-c2ccc(Cl)cc21)CCNC4` [Example 21], the “Mouse CAR ED50 (avoidance ED50, dose at which 50% of the animals would be expected to show response failure)” value is listed as greater than 81 mg/kg.
Next, `CC(C)N1CCc2c(c3cccc4c3n2-c2ccccc2C(=O)N4)C1` [Example 31, 1,2,3,4-Tetrahydro-3-(2-propyl)pyrido[4',3':2,3]indolo[1,7-ab][1,4]benzodiazepin-9(8H)-one]: 23 mg/kg.
For `CCN1CCc2c(c3cccc4c3n2-c2ccccc2C(=O)N4)C1` [Example 32] the value was 27 mg/kg.
As to `CCCN1CCc2c(c3c(Cl)ccc4c3n2-c2ccccc2C(=O)N4)C1` [Example 33], the “Mouse CAR ED50 (avoidance ED50, dose at which 50% of the animals would be expected to show response failure)” value came to 21.7 mg/kg.
For the compound `CCCN1CCc2c(c3cc(Cl)cc4c3n2-c2ccccc2C(=O)N4)C1` [Example 34], the “Mouse CAR ED50 (avoidance ED50, dose at which 50% of the animals would be expected to show response failure)” value is recorded as 13.6 mg/kg.
Take `CCCCCCN1CCc2c(c3cccc4c3n2-c2ccccc2C(=O)N4)C1` [Example 35]: the “Mouse CAR ED50 (avoidance ED50, dose at which 50% of the animals would be expected to show response failure)” value is 56.2 mg/kg.
For `CCCCCCN1CCc2c(c3c(Cl)ccc4c3n2-c2ccccc2C(=O)N4)C1` [Example 36] the value was 52 mg/kg; for `CCCCCCN1CCc2c(c3cc(Cl)cc4c3n2-c2ccccc2C(=O)N4)C1` [Example 37], 11.8 mg/kg.
Take `O=C1Nc2cccc3c4c(n(c23)-c2ccccc21)CCN(CC1CCCCC1)C4` [Example 38]: the “Mouse CAR ED50 (avoidance ED50, dose at which 50% of the animals would be expected to show response failure)” value is recorded as 56.2 mg/kg.
In the case of `O=C(CCCN1CCc2c(c3cc(Cl)cc4c3n2-c2ccccc2C(=O)N4)C1)c1ccc(F)cc1` [Example 40], the “Mouse CAR ED50 (avoidance ED50, dose at which 50% of the animals would be expected to show response failure)” value is 47 mg/kg.
`CCCCCCN1CCc2c(c3c(Cl)ccc4c3n2-c2ccc(C)cc2C(=O)N4)C1` [Example 41]: the “Mouse CAR ED50 (avoidance ED50, dose at which 50% of the animals would be expected to show response failure)” value was greater than 81 mg/kg.
`CCCCCCN1CCc2c(c3cc(Cl)cc4c3n2-c2ccc(C)cc2C(=O)N4)C1` [Example 42]: the “Mouse CAR ED50 (avoidance ED50, dose at which 50% of the animals would be expected to show response failure)” value was 162 mg/kg.
For `CCCCCCN1CCc2c(c3cccc4c3n2-c2ccc(Cl)cc2C(=O)N4)C1` [Example 43] the value was greater than 81 mg/kg; for `CCCCCCCCCCN1CCc2c(c3cc(Cl)cc4c3n2-c2ccccc2C(=O)N4)C1` [Example 44], greater than 162 mg/kg.
